The text below walks through data of patent publication US10689395B2, “Tricyclic fused pyridin-2-one derivatives and their use as BRD4 inhibitors” (JUBILANT BIOSYS LIMITED, priority 2015, dated 2020).

SMILES strings stand for the structures. Where two headings read alike, the source gives them in different places. Where only a bound is given, the exact number is not on record here.

One experiment relates to MV4-11 cells. Nature of the experiment: Anticancer activity: Alamar Blue assay, 3-day proliferation. The format is cell-based. The conditions noted are these: AML cell line MV4-11, 72 h, read-out: MV4-11 EC50_μM. The protocol:
Anticancer Activity: Alamar Blue Assay
The impact of the compounds on cancer cell proliferation was determined using the AML cell line MV4-11 (ATCC) in a 3-day proliferation assay. MV4-11 cells were maintained in RPMI supplemented with 10% FBS at 37° C., 5% CO2. For compound testing, MV4-11 cells were plated in a 96-well black bottom plate at a density of 15,000 cells/well in 100 μL culture media and incubated at 37° C. overnight. Compound dilution series were prepared in DMSO via a 3-fold serial dilution from 100 μM to 0.005 μM. The DMSO dilution series were then diluted with media, with the final compound concentrations added to the wells ranging from 10 μM to 0.0005 μM. […] The fluorescent readings from the Alamar Blue assay were normalized to the DMSO treated cells and analyzed using the GraphPad Prism software with sigmoidal curve fitting to obtain EC50.

Another experiment concerns the target BRD4-BD1 (Homo sapiens (Human), UniProt O60885). Nature of the experiment: BRD4 AlphaLISA (Perkin Elmer). The note with it: 5 nM BRD4-BD1, 12 nM biotinylated substrate, read-out: BRD4_BD1 IC50_μM. The class given is binding. The protocol: BRD4 AlphaLISA (Perkin Elmer)
Compounds were diluted by step-down dilution method (final concentration of DMSO was 1%) and added to the wells of a 384 well opti plate at desired concentrations. 5 nM BDR4-BD1 enzyme (produced in-house) and 12 nM of biotinylated substrate were added to the wells, covered and incubated at room temperature (RT) for 1 h. At the end of 1 h 250 ng of GSH acceptor beads were added to the well and incubated for 1 h at RT; then 500 ng of streptavidin donor beads were added and incubated again for 1 h at RT. Plates were read in a Pherastar reader at 680 nm excitation and 570 nm emission. As detailed above, compounds were tested for both BRD4 enzyme inhibitory activities and IC50 were determined.
Background: In Alpha technology, singlet oxygen from a donor bead excites a nearby acceptor bead.

In the case of `Cc1sc2c(c1C)C(c1ccc(Cl)cc1)OC(CC(N)=O)c1cc(=O)n(C)cc1-2` (racemic) [ee, ±2-(4-(4-chlorophenyl)-2,3,9-trimethyl-8-oxo-4,6,8,9-tetrahydrothieno[2′,3′:5,6]oxepino[4,3-c]pyridin-6-yl)acetamide], the EC50 in the experiment with MV4-11 cells (Homo sapiens) came out at 7 nM. Besides, on BRD4-BD1, the IC50 was 2 nM. Take `Cc1sc2c(c1C)C(c1ccc(Cl)cc1)=NC(CC(=O)Nc1ccc(O)cc1)c1cc(=O)n(C)cc1-2` (racemic) [h, ±2-(4-(4-chlorophenyl)-2,3,9-trimethyl-8-oxo-8,9-dihydro-6H-pyrido[4,3-c]thieno[2,3-e]azepin-6-yl)-N-(4-hydroxyphenyl)acetamide]: on BRD4-BD1, the IC50 worked out at 33 nM. As for `CCNC(=O)CC1N=C(c2ccc(Cl)cc2)c2cc(OC)ncc2-c2cn(C)c(=O)cc21` (racemic) [t, ±2-(7-(4-chlorophenyl)-9-methoxy-2-methyl-3-oxo-3,5-dihydro-2H-dipyrido[4,3-c:3′,4′-e]azepin-5-yl)-N-ethylacetamide], the EC50 in the experiment with MV4-11 cells worked out at 17 nM. At BRD4-BD1, the IC50 worked out at 2 nM. `Cc1sc2c(c1C)C(c1ccc(Cl)cc1)OC(CCO)c1cc(=O)n(C)cc1-2` (racemic) [hh, ±4-(4-chlorophenyl)-6-(2-hydroxyethyl)-2,3,9-trimethyl-4,9-dihydrothieno[2′,3′:5,6]oxepino[4,3-c]pyridin-8(6H)-one]: on BRD4-BD1, the IC50 turned out to be 17 nM.

`CCOC(=O)CC1N=C(c2ccc(Cl)cc2)c2c(cnn2C)-c2cn(C)c(=O)cc21` (racemic) [w, ±Ethyl 2-(4-(4-chlorophenyl)-3,9-dimethyl-8-oxo-3,6,8,9-tetrahydropyrazolo[3,4-c]pyrido[3,4-e]azepin-6-yl)acetate]: the EC50 in the experiment on MV4-11 cells stood at 26 nM. The IC50 on BRD4-BD1 was 10 nM. As for `CCNC(=O)CC1N=C(c2ccc(Cl)cc2)c2nc(C)sc2-c2cn(C)c(=O)cc21` (racemic) [m, ±2-(4-(4-chlorophenyl)-2,9-dimethyl-8-oxo-8,9-dihydro-6H-pyrido[4,3-c]thiazolo[5,4-e]azepin-6-yl)-N-ethylacetamide], the EC50 with MV4-11 cells was determined as 140 nM. Besides, the IC50 at BRD4-BD1 stood at 1 nM. Consider `Cc1sc2c(c1C)C(c1ccc(Cl)cc1)=NC(CC(N)=O)c1cc(=O)n(C)cc1-2` (racemic) [e, ±2-(4-(4-chlorophenyl)-2,3,9-trimethyl-8-oxo-8,9-dihydro-6H-pyrido[4,3-c]thieno[2,3-e]azepin-6-yl)acetamide], for which, in the experiment with MV4-11 cells (Homo sapiens), the EC50 was 7 nM. Besides, the IC50 on BRD4-BD1 came out at 2 nM. The like results for `CCNC(=O)C[C@@H]1N=C(c2ccc(Cl)cc2)c2c(cnn2C)-c2cn(C)c(=O)cc21` [z, (S)-2-(4-(4-chlorophenyl)-3,9-dimethyl-8-oxo-3,6,8,9-tetrahydropyrazolo[3,4-c]pyrido[3,4-e]azepin-6-yl)-N-ethylacetamide] were, in that order, 53 nM and 5 nM. On to `CCNC(=O)CC1N=C(CC2CC2)c2c(sc(C)c2C)-c2cn(C)c(=O)cc21` (racemic) [r, ±2-(4-(cyclopropylmethyl)-2,3,9-trimethyl-8-oxo-8,9-dihydro-6H-pyrido[4,3-c]thieno[2,3-e]azepin-6-yl)-N-ethylacetamide], for which the EC50 in the experiment on MV4-11 cells was determined as 157 nM. Also, the IC50 on BRD4-BD1 turned out to be 10 nM. With `CCNC(=O)CC1N=C(c2ccc(C#N)cc2)c2c(sc(C)c2C)-c2cn(C)c(=O)cc21` (stereo in doubt) [k, (R)-2-(4-(4-cyanophenyl)-2,3,9-trimethyl-8-oxo-8,9-dihydro-6H-pyrido[4,3-c]thieno[2,3-e]azepin-6-yl)-N-ethylacetamide], the EC50 in the experiment with MV4-11 cells (Homo sapiens) was 25 nM. Besides, on BRD4-BD1, the IC50 was under 0.5 nM.

With `CCOC(=O)CC1N=C(c2ccc(Cl)cc2)c2nc(C)sc2-c2cn(C)c(=O)cc21` (racemic) [l, ±Ethyl 2-(4-(4-chlorophenyl)-2,9-dimethyl-8-oxo-8,9-dihydro-6H-pyrido[4,3-c]thiazolo[5,4-e]azepin-6-yl)acetate], the EC50 with MV4-11 cells was 430 nM. Also, the IC50 on BRD4-BD1 came out at 140 nM. The like results for `CCNC(=O)CC1OC(c2ccc(Cl)cc2)c2c(sc(C)c2C)-c2cn(C)c(=O)cc21` (racemic) [bb, ±2-(4-(4-chlorophenyl)-2,3,9-trimethyl-8-oxo-4,6,8,9-tetrahydrothieno[2′,3′:5,6]oxepino[4,3-c]pyridin-6-yl)-N-ethylacetamide] were, in that order, under 0.5 nM and 1 nM. `CCNC(=O)CC1OC(c2ccc(Cl)cc2)c2c(cnn2C)-c2cn(C)c(=O)cc21` (racemic) [ll, ±2-(4-(4-chlorophenyl)-3,9-dimethyl-8-oxo-4,6,8,9-tetrahydro-3H-pyrazolo[4′,3′:5,6]oxepino[4,3-c]pyridin-6-yl)-N-ethylacetamide]: in the experiment with MV4-11 cells, the EC50 was under 0.5 nM. For the same molecule, the IC50 on BRD4-BD1 worked out at 1 nM. Turning to `CCNC(=O)CC1N=C(c2ccc(Cl)cc2)c2c(sc(C)c2C)-c2cn(C)c(=O)cc21` (racemic) [b, ±2-(4-(4-chlorophenyl)-2,3,9-trimethyl-8-oxo-8,9-dihydro-6H-pyrido[4,3-c]thieno[2,3-e]azepin-6-yl)-N-ethylacetamide], the EC50 in the experiment on MV4-11 cells (Homo sapiens) was 10 nM. Moreover, on BRD4-BD1, the IC50 was determined as 2.2 nM.
